Reference: US20170035724A1, “MAMMALIAN SIRT1 ACTIVATOR” (priority 2015, published 2017)

Legend:
mammalian SIRT1 [1] = test: p53 deacetylation in A549 cells treated with corylin and nicotinamide, Western blotting; format: cell-based, human; conditions: nicotinamide 1 hour before corylin, then UV, FIG. 6
Procedure: Nicotinamide is a mammalian SIRT1 inhibitor (Exp Hematol. 2012; 40(4): 342-55), and the compound is used to confirm the foregoing result. After human lung cancer A549 cells were cultured at 37° C. overnight, the cells were treated with a media containing nicotinamide, and then cultured at 37° C. for 1 hour. Corylin in various concentrations was added to the media, and the cells were cultured at 37° C. for 4 hours. After which, the cells were emitted with UV to acetylate p53, and cultured at 37° C. for 4 hours again. Finally, the total protein in the cells were extracted and analyzed using Western blotting.

wild type yeast cells = test: Replicative life span of wild type yeast cells (passage number); format: cell-based
Procedure: (§1) A yeast colony was selected and cultured in a YEPD culture media. When the OD value of the media was at 0.6-0.8, 20 μl of the media was added to a YEPD solid media, and then 20-30 yeast cells were selected using a tetrad dissection microscope manipulation system. The selected yeast cells were cultured at 30° C. for 3-5 hours to divide into first generation yeast cells. Afterwards, the first generation yeast cells were cultured at 30° C. for 3-5 hours to divide into second generation yeast cells. The culturing step was repeated until final generation yeast cells which cannot divide anymore existed. Finally, the yeast cells' passage number was counted according to the total division number.

sir2-mutant yeast cells = test: Replicative life span of sir2-mutant yeast cells (passage number); format: cell-based; conditions: sir2-mutant yeast cells treated with corylin; untreated 9.8; FIG. 2
Procedure: as §1

PNC1 [2] = test: PNC1 transcription in corylin-treated yeast cells (PCR and real-time PCR); format: cell-based; conditions: various treatment periods; increases with treatment period; FIGS. 4A and 4B
Procedure: After yeast cells were treated with corylin for various periods, total RNA in the treated yeast cells was extracted. Then, the cDNA corresponding to the extracted RNA was formed using reverse transcription. Finally, the cDNA was analyzed using polymerase chain reaction and real-time polymerase chain reaction.

PNC1 [3] = test: PNC1 translation (Pnc1 protein) in corylin-treated yeast cells, Western blotting; format: cell-based; conditions: 50 μM corylin for 10 hours; compared with calorie restriction for 10 hours as positive control; FIG. 4C
Procedure: To confirm the foregoing result, after yeast cells were treated with corylin in various concentrations for various periods, total protein therein was extracted and analyzed using Western blotting.

mammalian SIRT1 [4] = test: Mammalian SIRT1 expression in human osteosarcoma U2OS cells, Western blotting; format: cell-based; conditions: increases with culturing period, FIG. 5A
Procedure: Human osteosarcoma U2OS cells were seeded and cultured at 37° C. overnight, and then the cells were treated with corylin and cultured at 37° C. again. After various culturing periods, total protein in the treated cells was extracted and analyzed using Western blotting.

p53 [5] = test: UV-induced p53 acetylation in human lung cancer A549 cells, Western blotting; format: cell-based; conditions: corylin in various concentrations, 4 hours before UV, FIG. 5B
Procedure: (§2) After human lung cancer A549 cells or human osteosarcoma U2OS cells were cultured at 37° C. overnight, the cells were treated with various substances, and then cultured at 37° C. for 4 hours. After that, the cells were emitted with UV to acetylate p53, and cultured at 37° C. for 4 hours again. Finally, total protein extracted from the cells was analyzed using Western blotting.

p53 [6] = test: UV-induced p53 acetylation in human osteosarcoma U2OS cells, Western blotting; format: cell-based; conditions: corylin in various concentrations, 4 hours before UV, FIG. 5C
Procedure: as §2

Row | Molecule | effect on p53 deacetylation caused by corylin (mammalian SIRT1 [1]) | effective concentration on replicative life span of a yeast cell (wild type yeast cells; FIG. 3) | preferable effective concentration on replicative life span of a yeast cell (wild type yeast cells; FIG. 3, 'preferably') | passage number (replicative life span) (wild type yeast cells; wild type yeast cells treated with corylin, untreated 26.9, FIG. 2) | passage number (replicative life span) (sir2-mutant yeast cells) | PNC1 transcription (PNC1 [2]) | Pnc1 expression (PNC1 translation) (PNC1 [3]) | mammalian SIRT1 expression (mammalian SIRT1 [4]) | acetylation of p53 induced by UV (p53 [5]) | acetylation of p53 induced by UV (p53 [6])
1 | NC(=O)c1cccnc1 [nicotinamide, Nicotinamide] | can inhibit the p53 deacetylation caused by corylin | – | – | – | – | – | – | – | – | –
2 | corylin | – | 2 to 100 µM | 2 to 15 µM | 33.2 | 10.6 | can promote the transcription of PNC1 | can obviously express Pnc1 | can promote the expression of mammalian SIRT1 | can repress the acetylation of p53 induced by UV | can repress the acetylation of p53 induced by UV
